In US20260356830A1, “COMPOUNDS FOR MODULATING RET PROTEIN” (Bristol-Myers Squibb Company, priority 2022, published 2026):

Target: T1, CCDC6-RET (Homo sapiens, UniProt P07949+Q16204+Q96SW2)
T1 construct: CCDC6 (natural N-terminal fusion partner, UniProt Q16204); endogenous in cells; host or cells: TPC-1 (parental, papillary thyroid carcinoma)
Assay: Cellular RET degradation, AlphaLISA, TPC-1 cell line
Format: cell-based
Conditions: for Dmax: TPC1, human, 24 h, read-out: Cell Density TPC-1/CCDC6-RET Ymax %; for DC50: read-out: Cell Density TPC-1/CCDC6-RET DC50, half-maximal degradation concentration, TPC-1 (CCDC6-RET), 24 hrs
Summary of the method: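 Luminescent AlphaLISA read of RET abundance in lysates after 24 h compound exposure (37 °C, 2% FBS DMEM) of CCDC6-RET-bearing TPC-1 cells. % degradation relative to DMSO (high) and media (low) controls, fitted to 4-parameter logistic curve for DC50 and Ymax.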

T1 sequence (Q16204+P07949 fused): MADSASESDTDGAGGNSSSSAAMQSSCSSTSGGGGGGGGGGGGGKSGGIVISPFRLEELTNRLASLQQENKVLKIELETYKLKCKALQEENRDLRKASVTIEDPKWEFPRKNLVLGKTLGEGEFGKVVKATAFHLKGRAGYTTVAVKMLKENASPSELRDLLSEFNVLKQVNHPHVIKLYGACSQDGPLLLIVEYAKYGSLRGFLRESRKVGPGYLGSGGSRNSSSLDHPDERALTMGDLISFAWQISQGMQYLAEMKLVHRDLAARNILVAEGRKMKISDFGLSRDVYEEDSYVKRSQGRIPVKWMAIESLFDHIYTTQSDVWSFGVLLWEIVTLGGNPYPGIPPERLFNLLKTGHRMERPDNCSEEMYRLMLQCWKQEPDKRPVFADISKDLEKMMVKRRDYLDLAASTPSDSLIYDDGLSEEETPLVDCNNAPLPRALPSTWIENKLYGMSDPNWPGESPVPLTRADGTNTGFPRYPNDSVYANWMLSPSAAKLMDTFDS
T1 sequence (Q96SW2 whole entry, the tested form may be a part): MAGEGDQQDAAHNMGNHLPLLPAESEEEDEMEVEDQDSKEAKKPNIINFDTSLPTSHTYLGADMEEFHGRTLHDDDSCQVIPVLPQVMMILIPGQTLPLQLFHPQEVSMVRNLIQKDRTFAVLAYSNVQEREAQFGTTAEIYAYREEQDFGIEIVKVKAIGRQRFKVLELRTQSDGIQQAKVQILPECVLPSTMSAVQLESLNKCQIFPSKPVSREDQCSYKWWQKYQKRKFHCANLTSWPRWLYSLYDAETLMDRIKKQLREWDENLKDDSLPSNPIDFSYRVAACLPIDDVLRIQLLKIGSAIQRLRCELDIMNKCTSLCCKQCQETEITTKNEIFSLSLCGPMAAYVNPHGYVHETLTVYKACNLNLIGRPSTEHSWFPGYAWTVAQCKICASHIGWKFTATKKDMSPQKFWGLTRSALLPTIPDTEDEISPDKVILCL
T1 sequence (Q16531 whole entry partner, the tested form may be a part): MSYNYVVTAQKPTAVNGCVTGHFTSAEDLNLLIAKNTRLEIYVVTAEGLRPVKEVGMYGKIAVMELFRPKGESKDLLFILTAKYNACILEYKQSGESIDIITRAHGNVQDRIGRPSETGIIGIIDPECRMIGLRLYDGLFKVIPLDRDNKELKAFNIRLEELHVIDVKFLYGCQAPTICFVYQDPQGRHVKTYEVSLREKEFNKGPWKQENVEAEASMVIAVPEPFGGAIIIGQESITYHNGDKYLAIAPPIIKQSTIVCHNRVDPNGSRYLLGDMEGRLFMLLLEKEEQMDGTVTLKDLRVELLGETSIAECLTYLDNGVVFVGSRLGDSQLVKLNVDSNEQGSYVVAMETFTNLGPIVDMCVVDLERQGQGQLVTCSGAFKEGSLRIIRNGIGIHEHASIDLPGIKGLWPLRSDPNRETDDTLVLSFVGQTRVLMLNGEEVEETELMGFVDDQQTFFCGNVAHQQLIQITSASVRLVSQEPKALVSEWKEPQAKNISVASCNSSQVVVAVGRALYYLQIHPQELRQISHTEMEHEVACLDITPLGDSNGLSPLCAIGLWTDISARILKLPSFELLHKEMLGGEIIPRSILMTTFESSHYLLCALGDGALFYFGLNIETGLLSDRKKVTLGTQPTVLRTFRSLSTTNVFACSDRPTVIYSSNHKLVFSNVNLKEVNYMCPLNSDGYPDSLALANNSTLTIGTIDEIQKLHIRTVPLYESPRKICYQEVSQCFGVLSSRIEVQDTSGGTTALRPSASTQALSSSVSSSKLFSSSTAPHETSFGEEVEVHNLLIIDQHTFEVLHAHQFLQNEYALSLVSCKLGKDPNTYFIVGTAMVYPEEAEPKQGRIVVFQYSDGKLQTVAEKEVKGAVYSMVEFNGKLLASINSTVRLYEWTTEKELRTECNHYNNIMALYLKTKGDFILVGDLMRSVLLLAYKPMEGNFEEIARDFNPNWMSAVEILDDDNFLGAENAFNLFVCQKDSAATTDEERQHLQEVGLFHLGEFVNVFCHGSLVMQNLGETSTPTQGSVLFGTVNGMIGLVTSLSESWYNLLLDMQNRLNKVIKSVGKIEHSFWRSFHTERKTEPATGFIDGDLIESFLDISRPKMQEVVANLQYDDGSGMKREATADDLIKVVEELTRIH

Row | Compound | Dmax [%] | DC50 [nM]
1 | CCOc1cc(-c2ccc(N3CCC(COCc4cn(CCN5CCN(c6ccc7c(c6)CN(C6CCC(=O)NC6=O)C7=O)CC5)nn4)(NC(=O)c4cc(F)ccc4F)CC3)nc2)c2c(C#N)cnn2c1 (stereo not shown) [Example 49, N-[1-[5-(3-cyano-6-ethoxy-pyrazolo[1,5-a]pyridin-4-yl)-2-pyridyl]-4-[[1-[2-[4-[2-(2,6-dioxo-3-piperidyl)-1-oxo-isoindolin-5-yl]piperazin-1-yl]ethyl]triazol-4-yl]methoxymethyl]-4-piperidyl]-2,5-difluoro-benzamide] | > 90 | 2 to 10
2 | CCOc1cc(-c2ccc(N3CCC(COCc4cn(CCCN5CCN(c6ccc7c(c6)CN(C6CCC(=O)NC6=O)C7=O)CC5)nn4)(NC(=O)c4cc(F)ccc4F)CC3)nc2)c2c(C#N)cnn2c1 (stereo not shown) [Example 50, N-(1-(5-(3-cyano-6-ethoxypyrazolo[1,5-a]pyridin-4-yl)pyridin-2-yl)-4-(((1-(3-(4-(2-(2,6-dioxopiperidin-3-yl)-1-oxoisoindolin-5-yl)piperazin-1-yl)propyl)-1H-1,2,3-triazol-4-yl)methoxy)methyl)piperidin-4-yl)-2,5-difluorobenzamide] | 60 to 90 | 2 to 10
3 | CCOc1cc(-c2ccc(N3CCC(Cc4ccccc4)(NC(=O)N4CCN(C(=O)CCN5CCC(c6ccc7c(c6)C(=O)N(C6CCC(=O)NC6=O)C7)CC5)CC4)CC3)nc2)c2c(C#N)cnn2c1 (stereo not shown) [Example 51, N-[4-benzyl-1-[5-(3-cyano-6-ethoxy-pyrazolo[1,5-a]pyridin-4-yl)-2-pyridyl]-4-piperidyl]-4-[3-[4-[2-(2,6-dioxo-3-piperidyl)-3-oxo-isoindolin-5-yl]-1-piperidyl]propanoyl]piperazine-1-carboxamide] | 60 to 90 | 10 to 100
4 | CCOc1cc(-c2ccc(N3CCC(Cc4ccccc4)(NC(=O)C4CCN(C(=O)CCN5CCC(c6ccc7c(c6)C(=O)N(C6CCC(=O)NC6=O)C7)CC5)CC4)CC3)nc2)c2c(C#N)cnn2c1 (stereo not shown) [Example 52, N-[4-benzyl-1-[5-(3-cyano-6-ethoxy-pyrazolo[1,5-a]pyridin-4-yl)-2-pyridyl]-4-piperidyl]-1-[3-[4-[2-(2,6-dioxo-3-piperidyl)-3-oxo-isoindolin-5-yl]-1-piperidyl]propanoyl]piperidine-4-carboxamide] | > 90 | 2 to 10
5 | CCOc1cc(-c2ccc(N3CCC(Cc4ccccc4)(NC(=O)CN4CCN(C(=O)CCN5CCC(c6ccc7c(c6)C(=O)N(C6CCC(=O)NC6=O)C7)CC5)CC4)CC3)nc2)c2c(C#N)cnn2c1 (stereo not shown) [Example 53, N-[4-benzyl-1-[5-(3-cyano-6-ethoxy-pyrazolo[1,5-a]pyridin-4-yl)-2-pyridyl]-4-piperidyl]-2-[4-[3-[4-[2-(2,6-dioxo-3-piperidyl)-3-oxo-isoindolin-5-yl]-1-piperidyl]propanoyl]piperazin-1-yl]acetamide] | 60 to 90 | 10 to 100
6 | CCOc1cc(-c2ccc(N3CCC(Cc4ccccc4)(NC(=O)CC4CCN(C(=O)CCN5CCC(c6ccc7c(c6)C(=O)N(C6CCC(=O)NC6=O)C7)CC5)CC4)CC3)nc2)c2c(C#N)cnn2c1 (stereo not shown) [Example 54, N-[4-benzyl-1-[5-(3-cyano-6-ethoxy-pyrazolo[1,5-a]pyridin-4-yl)-2-pyridyl]-4-piperidyl]-2-[1-[3-[4-[2-(2,6-dioxo-3-piperidyl)-3-oxo-isoindolin-5-yl]-1-piperidyl]propanoyl]-4-piperidyl]acetamide] | 60 to 90 | 100 to 2000
7 | CCOc1cc(-c2ccc(N3CCC(Cc4ccccc4)(NC(=O)N4CCC(CN5CCC(c6ccc7c(c6)C(=O)N(C6CCC(=O)NC6=O)C7)CC5)CC4)CC3)nc2)c2c(C#N)cnn2c1 (stereo not shown) [Example 55] | 60 to 90 | 2 to 10
8 | CCOc1cc(-c2ccc(N3CCC(Cc4ccccc4)(NC(=O)N4CCC(N5CCC(c6ccc7c(c6)C(=O)N(C6CCC(=O)NC6=O)C7)CC5)CC4)CC3)nc2)c2c(C#N)cnn2c1 (stereo not shown) [Example 56, N-[4-benzyl-1-[5-(3-cyano-6-ethoxy-pyrazolo[1,5-a]pyridin-4-yl)-2-pyridyl]-4-piperidyl]-4-[4-[2-(2,6-dioxo-3-piperidyl)-3-oxo-isoindolin-5-yl]-1-piperidyl]piperidine-1-carboxamide] | 60 to 90 | 2 to 10
9 | CCOc1cc(-c2ccc(N3CCC(Cc4ccccc4)(NC(=O)CN4CCC(CN5CCC(c6ccc7c(c6)C(=O)N(C6CCC(=O)NC6=O)C7)CC5)CC4)CC3)nc2)c2c(C#N)cnn2c1 (stereo not shown) [Example 57, N-[4-benzyl-1-[5-(3-cyano-6-ethoxy-pyrazolo[1,5-a]pyridin-4-yl)-2-pyridyl]-4-piperidyl]-2-[4-[[4-[2-(2,6-dioxo-3-piperidyl)-3-oxo-isoindolin-5-yl]-1-piperidyl]methyl]-1-piperidyl]acetamide] | 60 to 90 | 100 to 2000
10 | CCOc1cc(-c2ccc(N3CCC(CN4CCN(C5CN(C(=O)Cc6ccc7c(c6)CN(C6CCC(=O)NC6=O)C7=O)C5)CC4)(NC(=O)c4cc(F)ccc4F)CC3)nc2)c2c(C#N)cnn2c1 (stereo not shown) [Example 62, N-[1-(5-{3-cyano-6-ethoxypyrazolo[1,5-a]pyridin-4-yl}pyridin-2-yl)-4-{[4-(1-{2-[2-(2,6-dioxopiperidin-3-yl)-1-oxo-2,3-dihydro-1H-isoindol-5-yl]acetyl}azetidin-3-yl)piperazin-1-yl]methyl}piperidin-4-yl]-2,5-difluorobenzamide] | 60 to 90 | 2 to 10
11 | CCOc1cc(-c2ccc(N3CCC(CN4CCN(C5CN(C(=O)c6ccc7c(c6)CN(C6CCC(=O)NC6=O)C7=O)C5)CC4)(NC(=O)c4cc(F)ccc4F)CC3)nc2)c2c(C#N)cnn2c1 (stereo not shown) [Example 63, N-[1-(5-{3-cyano-6-ethoxypyrazolo[1,5-a]pyridin-4-yl}pyridin-2-yl)-4-[(4-{1-[2-(2,6-dioxopiperidin-3-yl)-1-oxo-2,3-dihydro-1H-isoindole-5-carbonyl]azetidin-3-yl}piperazin-1-yl)methyl]piperidin-4-yl]-2,5-difluorobenzamide] | 60 to 90 | 2 to 10
12 | CCOc1cc(-c2ccc(N3CCC(CN4CCN(C5CN(C(=O)c6ccc7c(N8CCC(=O)NC8=O)nn(C)c7c6)C5)CC4)(NC(=O)c4cc(F)ccc4F)CC3)nc2)c2c(C#N)cnn2c1 [Example 64, N-[1-(5-{3-cyano-6-ethoxypyrazolo[1,5-a]pyridin-4-yl}pyridin-2-yl)-4-[(4-{1-[3-(2,4-dioxo-1,3-diazinan-1-yl)-1-methyl-1H-indazole-6-carbonyl]azetidin-3-yl}piperazin-1-yl)methyl]piperidin-4-yl]-2,5-difluorobenzamide] | > 90 | < 2
13 | CCOc1cc(-c2ccc(N3CCC(CN4CCN(C5CN(C(=O)COc6ccc7c(c6)CN(C6CCC(=O)NC6=O)C7=O)C5)CC4)(NC(=O)c4cc(F)ccc4F)CC3)nc2)c2c(C#N)cnn2c1 (stereo not shown) [Example 65, N-[1-(5-{3-cyano-6-ethoxypyrazolo[1,5-a]pyridin-4-yl}pyridin-2-yl)-4-({4-[1-(2-{[2-(2,6-dioxopiperidin-3-yl)-1-oxo-2,3-dihydro-1H-isoindol-5-yl]oxy}acetyl)azetidin-3-yl]piperazin-1-yl}methyl)piperidin-4-yl]-2,5-difluorobenzamide] | 60 to 90 | 2 to 10
14 | CCOc1cc(-c2ccc(N3CCC(Cc4ccccc4)(NC(=O)C4CCN(C(=O)CCN5CCC(c6ccc7c(c6)CN(C6CCC(=O)NC6=O)C7=O)CC5)CC4)CC3)nc2)c2c(C#N)cnn2c1 (stereo not shown) [Example 66, N-[4-benzyl-1-(5-{3-cyano-6-ethoxypyrazolo[1,5-a]pyridin-4-yl}pyridin-2-yl)piperidin-4-yl]-1-(3-{4-[2-(2,6-dioxopiperidin-3-yl)-1-oxo-2,3-dihydro-1H-isoindol-5-yl]piperidin-1-yl}propanoyl)piperidine-4-carboxamide] | 60 to 90 | < 2
15 | CCOc1cc(-c2ccc(N3CCC(CN4CCC(CN5CCN(c6ccc7c(c6)CN(C6CCC(=O)NC6=O)C7=O)CC5)CC4)(NC(=O)c4cc(F)ccc4F)CC3)nc2)c2c(C#N)cnn2c1 (stereo not shown) [Example 69, N-(1-(5-(3-cyano-6-ethoxypyrazolo[1,5-a]pyridin-4-yl)pyridin-2-yl)-4-((4-((4-(2-(2,6-dioxopiperidin-3-yl)-1-oxoisoindolin-5-yl)piperazin-1-yl)methyl)piperidin-1-yl)methyl)piperidin-4-yl)-2,5-difluorobenzamide] | > 90 | < 2
16 | CCOc1cc(-c2ccc(N3CCC(CN4CCC(N5CC(N6CCC(c7ccc8c(c7)C(=O)N(C7CCC(=O)NC7=O)C8)CC6)C5)CC4)(NC(=O)c4cc(F)ccc4F)CC3)nc2)c2c(C#N)cnn2c1 (stereo not shown) [Example 71, N-(1-(5-(3-cyano-6-ethoxypyrazolo[1,5-a]pyridin-4-yl)pyridin-2-yl)-4-((4-(3-(4-(2-(2,6-dioxopiperidin-3-yl)-3-oxoisoindolin-5-yl)piperidin-1-yl)azetidin-1-yl)piperidin-1-yl)methyl)piperidin-4-yl)-2,5-difluorobenzamide] | > 90 | < 2
17 | CCOc1cc(-c2ccc(N3CCC(CN4CCN(C(=O)CCN5CCC(c6ccc7c(c6)C(=O)N(C6CCC(=O)NC6=O)C7)CC5)CC4)(C(=O)NC(C)C)CC3)nc2)c2c(C#N)cnn2c1 (stereo not shown) [Example 76, 1-(5-(3-cyano-6-ethoxypyrazolo[1,5-a]pyridin-4-yl)pyridin-2-yl)-4-((4-(3-(4-(2-(2,6-dioxopiperidin-3-yl)-3-oxoisoindolin-5-yl)piperidin-1-yl)propanoyl)piperazin-1-yl)methyl)-N-isopropylpiperidine-4-carboxamide] | 60 to 90 | 10 to 100
